Here are results for ten molecules from PubChem BioAssay (NCI).

Test systems include SF-539 CNS; KM12 colon; HCT-15 colon; HCC-2998 colon; UACC-257 melanoma; SN12C renal; SNB-19 CNS; IGROV1 ovarian; SF-295 CNS; HT29 colon; U251 CNS; UO-31 renal; MCF7 breast; SR leukemia; HS 578T breast.
Assay in all cases: DTP human tumour cell line panel, 48 h

“And” between values parts separate entries of the source, which are not always exact repeats. Equal entries are not always repeated.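 Briefly, cells in 96-well plates were exposed to five compound concentrations for 48 h, and endpoints were estimated by linear interpolation. GI50 marks 50% less growth. TGI: concentration producing complete growth inhibition.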

Broadly, the TGI is the concentration at which net growth stops. High values mean less potent growth arrest, low ones more potent growth arrest. `Cc1ccc(O)c(C(=O)CCCC(=O)c2cc(C)ccc2O)c1`: the TGI in the test on SF-539 CNS, in the test with KM12 colon, with HCT-15 colon, with HCC-2998 colon, in the test on UACC-257 melanoma and in the test with SN12C renal was > 100 µM each time. Moreover, the TGI with SNB-19 CNS, with IGROV1 ovarian, with SF-295 CNS, with HT29 colon, in the test with U251 CNS and with UO-31 renal was > 100 µM throughout.

Turning to `COc1cc([C@@H]2c3cc4c(cc3[C@@H](NC(=O)c3cccc(F)c3)C3COC(=O)[C@@H]32)OCO4)cc(OC)c1O` (some centres undefined), the TGI with SF-539 CNS was 1.7 µM; with KM12 colon, 7.2 µM; in the test on HCT-15 colon, 7.09 µM; in the test on HCC-2998 colon, 11.3 µM; in the test with UACC-257 melanoma, 58.1 µM; in the test with SN12C renal, 2.73 µM. Also, the TGI was found to be 14.2 µM with SNB-19 CNS; 10.6 µM in the test on IGROV1 ovarian; 26.8 µM in the test on SF-295 CNS; 15.4 µM in the test with HT29 colon; 1.94 µM in the test with U251 CNS; 11.2 µM in the test on UO-31 renal.

The GI50 is the concentration giving 50% growth inhibition. In the case of `C/C(=C\c1ccc(Cl)c(Cl)c1)[N+](=O)[O-]`, the TGI in the test on SF-539 CNS is 5.77 µM; with KM12 colon it was 3.29 µM and 4.16 µM; with HCT-15 colon, 4.13 µM and 3.18 µM; in the test on HCC-2998 colon it was 8.25 µM; in the test with UACC-257 melanoma it was 2.56 µM and 2.84 µM; in the test on SN12C renal, 4.08 µM. In addition, the TGI was 17.3 µM in the test on MCF7 breast; 9.45 µM in the test on SNB-19 CNS; 3.85 µM in the test with IGROV1 ovarian; 11.4 µM and 6.68 µM in the test on SR leukemia; 5.72 µM and 8.01 µM in the test with SF-295 CNS; 5.9 µM in the test on HT29 colon. In addition, the TGI in the test with HS 578T breast was 9.44 µM; in the test with U251 CNS it was 2.71 µM; with UO-31 renal, 2.61 µM and 2.66 µM. Besides, the figures for the GI50 in the test with KM12 colon, in the test on SR leukemia and with SF-295 CNS were 1.71 µM, 2.38 µM and 2.19 µM, respectively.

`NNc1[nH]c(=S)[nH]c1C(N)=O`: the TGI with SF-539 CNS, with KM12 colon, in the test with HCT-15 colon, with HCC-2998 colon, in the test with UACC-257 melanoma and in the test with SN12C renal was > 100 µM each time. For the same molecule, the TGI with MCF7 breast, in the test with IGROV1 ovarian, with SF-295 CNS, in the test on HT29 colon, with HS 578T breast and with U251 CNS was > 100 µM throughout. The TGI in the test with UO-31 renal is > 100 µM.

For the molecule `CC(=O)NNc1nc(C)c(C(/C=C/c2ccc(Cl)cc2)=N/NC(=O)C[N+](C)(C)C)s1`, the TGI in the test with SF-539 CNS, with KM12 colon, with HCT-15 colon, with HCC-2998 colon, in the test with UACC-257 melanoma and in the test on SNB-19 CNS was > 100 µM each time. Also, the TGI with IGROV1 ovarian, with SF-295 CNS, in the test with HT29 colon and in the test on UO-31 renal was > 100 µM throughout.

Take `[N-]=[N+]=NC(CBr)c1cn([C@H]2C[C@H](O)[C@@H](CO)O2)c(=O)[nH]c1=O` (some centres undefined): the total growth inhibition concentration (TGI) in the test on SF-539 CNS, with KM12 colon, in the test on HCT-15 colon, in the test with HCC-2998 colon, in the test with SN12C renal and in the test with SNB-19 CNS was > 100 µM each time. For the same molecule, the TGI with IGROV1 ovarian, in the test with SR leukemia, with SF-295 CNS, in the test on HT29 colon, in the test with U251 CNS and in the test on UO-31 renal was > 100 µM throughout.

Take `CC(C)C(/C=C/c1ccc(Br)cc1)=N\NC(N)=O`: the TGI with SF-539 CNS was > 100 µM; with KM12 colon, > 100 µM; in the test with HCT-15 colon, > 100 µM; in the test on HCC-2998 colon it was 25.7 µM; in the test with UACC-257 melanoma, > 100 µM; in the test with SN12C renal it was > 100 µM. The TGI in the test with SNB-19 CNS, in the test on IGROV1 ovarian, with SR leukemia, with SF-295 CNS, in the test on HT29 colon and with U251 CNS was > 100 µM in each case. In the test with UO-31 renal, this molecule had a TGI of 66.6 µM.

Turning to `CSc1nc2[nH]c(=O)c(C)nc2c(=O)[nH]1`, the TGI with KM12 colon, in the test on HCT-15 colon, with HCC-2998 colon, with UACC-257 melanoma, in the test with SN12C renal and in the test on SNB-19 CNS was > 100 µM in each case. Further, the TGI with IGROV1 ovarian, in the test with SR leukemia, in the test on SF-295 CNS, with HT29 colon, with U251 CNS and with UO-31 renal was > 100 µM throughout.

For the molecule `NC(=O)c1[nH]cnc1/N=N/SCC(N)C(=O)O` (centres undefined), the TGI with SF-539 CNS is > 100 µM; in the test with KM12 colon it was > 62.5 µM; in the test on HCT-15 colon it was > 100 µM; with HCC-2998 colon, > 30.6 µM; with UACC-257 melanoma it was > 100 µM; with SN12C renal, > 58 µM. Further, the TGI was > 100 µM with MCF7 breast; > 100 µM in the test on SNB-19 CNS; > 100 µM with IGROV1 ovarian; > 75.1 µM in the test with SF-295 CNS; > 100 µM with HT29 colon; > 100 µM with HS 578T breast. In addition, the TGI was > 100 µM in the test with U251 CNS and > 93.9 µM in the test on UO-31 renal.

`CCCCS(=O)(=O)Nc1ccc(Nc2c3ccccc3nc3ccccc23)c(OC)c1`: the total growth inhibition concentration (TGI) is 5.98 µM with SF-539 CNS; 14.8 µM with KM12 colon; 9.11 µM with HCT-15 colon; 16.7 µM in the test with HCC-2998 colon; 18.6 µM in the test with UACC-257 melanoma; 5.77 µM in the test on SN12C renal. Further, the TGI was found to be 17.4 µM in the test on MCF7 breast; 14.5 µM with SNB-19 CNS; 24.9 µM in the test on IGROV1 ovarian; 9.84 µM in the test on SF-295 CNS; 6.37 µM in the test on HT29 colon; 5.85 µM with U251 CNS. The same molecule had a TGI in the test on UO-31 renal of 10.2 µM.
